Measured values from paper PMC3463759 (Clinical cancer research : an official journal of the …, 2012).
Like-named read-outs stand apart in the source and are kept apart here.

What was measured:
[1] = for reduction of Cmax: paclitaxel with dasatinib (Cycle 2 Day 1) vs paclitaxel alone (Cycle 1 Day 1)
clinical = settings: human, plasma, intravenous
[2] = paclitaxel alone, Cycle 1 Day 1, N=20
[3] = paclitaxel alone, Cycle 1 Day 1, N=20, dose-normalized to 175 mg/m^2
[4] = paclitaxel and dasatinib, Cycle 2 Day 1, N=18
[5] = paclitaxel and dasatinib, Cycle 2 Day 1, N=18, dose-normalized to 175 mg/m^2
[6] = paclitaxel with dasatinib vs paclitaxel alone

CC(=O)O[C@H]1C(=O)[C@@]2(C)[C@H]([C@H](OC(=O)c3ccccc3)[C@]3(O)C[C@H](OC(=O)[C@H](O)[C@@H](NC(=O)c4ccccc4)c4ccccc4)C(C)=C1C3(C)C)[C@]1(OC(C)=O)CO[C@@H]1[C@@H](O)[C@@H]2O [6-OH paclitaxel]
inter-individual variability (%CV) for exposure ([1]; in vivo): 40–70% | T-HALF, Mean (SD) [1, 2]: 1.26 h | AUC(0-T), Geo Mean (%CV) [1, 3]: 732 (53) ng•h/mL | AUC(INF), Geo Mean (%CV) [1, 3]: 771 (53) ng•h/mL | Cmax, Geo Mean (%CV) [1, 3]: 349 (44) ng/mL | T-HALF, Mean (SD) ([1]; paclitaxel alone, Cycle 1 Day 1, N=20, listed as 6-OH Paclitaxel): 1.26 (0.75) h | M/P, metabolite to parent ratio based on dose normalized AUC(INF), Mean (SD) ([1]; paclitaxel alone, N=20): 0.06 (0.04) | T-HALF, Mean (SD) [1, 4]: 0.94 h | AUC(0-T), Geo Mean (%CV) [1, 5]: 562 (68) ng•h/mL | AUC(INF), Geo Mean (%CV) [1, 5]: 615 (68) ng•h/mL | Cmax, Geo Mean (%CV) [1, 5]: 260 (58) ng/mL | T-HALF, Mean (SD) ([1]; paclitaxel and dasatinib, Cycle 2 Day 1, N=18, listed as 6-OH Paclitaxel): 0.94 (0.47) h | M/P, metabolite to parent ratio based on dose normalized AUC(INF), Mean (SD) ([1]; paclitaxel and dasatinib, N=18): 0.05 (0.02) | reduction of Cmax [1]: 25% | reduction of geometric mean AUC(0-T) [1, 6]: 23% | reduction of geometric mean AUC(INF) [1, 6]: 20% | reduction of mean T-HALF [1, 6]: 25%

CC(=O)O[C@H]1C(=O)[C@@]2(C)[C@H]([C@H](OC(=O)c3ccccc3)[C@]3(O)C[C@H](OC(=O)[C@H](O)[C@@H](NC(=O)c4ccccc4)c4ccccc4)C(C)=C1C3(C)C)[C@]1(OC(C)=O)CO[C@@H]1C[C@@H]2O [paclitaxel]
differences in mean T-HALF, MRT(INF), CLt, and Vss ([1]; paclitaxel alone vs paclitaxel in combination with dasatinib): less than 20% | CLt, Mean (SD) [1, 2]: 20.9 (6.3) L/h | T-HALF, Mean (SD) [1, 2]: 11.7 (1.6) h | CLt, Mean (SD) [1, 4]: 24.3 (6.0) L/h | T-HALF, Mean (SD) [1, 4]: 11.7 (3.8) h | reduction of Cmax [1]: 19% | reduction of geometric mean AUC(0-T) [1, 6]: 15% | reduction of geometric mean AUC(INF) [1, 6]: 14% | MRT inf (clinical): 6.9 h | Vd (clinical): 163 L | AUC(0-inf) (clinical; 175 mg/m^2): 16100 ng·h/mL | AUC(0-t) (clinical; 175 mg/m^2): 15700 ng·h/mL | Cmax (clinical; 175 mg/m^2): 4820 ng/mL | MRT inf (clinical; 175 mg/m^2): 6.7 h
